Measurements published in US12336981B2, “Compounds and compositions for the inhibition of NAMPT” (Valo Health, Inc., priority 2010, dated 2025).
Like-named read-outs stand apart in the source and are kept apart here.

Tests used:
[1] = biological target: T1, NAMPT (Homo sapiens, UniProt P43490); test: Biochemical inhibition assay: NAMPT enzymatic reaction, NMN quantified by mass spectrometry; settings: NAMPT enzymatic assay; read-out: Biochem IC50
T1 construct: His tag; host or cells: E. coli
Procedure, shortened: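 Inhibition of E. coli-expressed His-tagged human NAMPT, measured as NMN formation by mass spectrometry after a 30 min room-temperature reaction containing 1 μM NAM, 100 μM PRPP and 2.5 mM ATP.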

[2] = test system: A2780 cells; test: In-vitro cell proliferation assay (SRB), A2780 cells; format: cell-based; settings: A2780 cells, 72 hours, SRB, read-out: A2780 IC50
Procedure, shortened: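 SRB read-out: 6% TCA fix 1 h at 4° C., stain, Tris solubilize, A570. Media-only background subtracted; % inhibition from two compound concentrations.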

T1 sequence (P43490 whole entry): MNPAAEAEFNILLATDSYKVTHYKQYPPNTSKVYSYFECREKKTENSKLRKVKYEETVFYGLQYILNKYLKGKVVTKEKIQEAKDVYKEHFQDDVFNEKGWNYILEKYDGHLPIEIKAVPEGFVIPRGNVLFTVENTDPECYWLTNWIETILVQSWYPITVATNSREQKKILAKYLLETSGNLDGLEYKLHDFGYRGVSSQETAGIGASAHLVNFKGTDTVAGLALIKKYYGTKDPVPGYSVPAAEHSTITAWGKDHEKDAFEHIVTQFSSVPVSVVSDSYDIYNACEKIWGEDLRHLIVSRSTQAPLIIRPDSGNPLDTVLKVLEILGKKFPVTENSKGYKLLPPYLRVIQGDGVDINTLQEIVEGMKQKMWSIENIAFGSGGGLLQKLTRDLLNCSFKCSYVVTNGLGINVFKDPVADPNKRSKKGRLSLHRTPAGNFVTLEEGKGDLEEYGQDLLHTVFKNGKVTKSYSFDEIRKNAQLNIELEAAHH

SMILES	IC50 [1] [nM]	IC50 ([2]; Homo sapiens, A2780, 72 h) [nM]	IC50 [2] [nM]
O=C(NCc1ccc(S(=O)(=O)c2ccc(Cn3ccnc3)cc2)cc1)c1cc2ccncc2s1	5.3	12.2	
O=C(NCc1ccc(S(=O)(=O)c2ccc(-n3cccn3)cc2)cc1)c1cc2ccncc2o1	4.1	7.3	
O=C(NCc1ccc(S(=O)(=O)c2ccc(-n3cccn3)cc2)cc1)c1cnc2[nH]ncc2c1	12.3	7.5	
CC(C)COc1ccc(S(=O)(=O)c2ccc(CNC(=O)c3cc4ccncc4o3)cc2)cc1	9.4	11.6	
CC(C)COc1ccc(S(=O)(=O)c2ccc(CNC(=O)c3cnc4nccn4c3)cc2)cc1	5.5	5.2	
CC(C)COc1ccc(S(=O)(=O)c2ccc(CNC(=O)c3cc4cnccc4[nH]3)cc2)cc1	12.7	9.4	
CC(C)COc1ccc(S(=O)(=O)c2ccc(CNC(=O)c3ccc4nccn4c3)cc2)cc1	2.2	2.7	
CC(C)COc1ccc(S(=O)(=O)c2ccc(CNC(=O)c3cc4ccncc4s3)cc2)cc1	4	10.3	
CN1CCN(c2ccc(S(=O)(=O)c3ccc(CNC(=O)c4cc5ccncc5o4)cc3)cc2)CC1	1	0.5	
CN1CCN(c2ccc(S(=O)(=O)c3ccc(CNC(=O)c4cc5cnccc5[nH]4)cc3)cc2)CC1	3	0.8	
CN1CCN(c2ccc(S(=O)(=O)c3ccc(CNC(=O)c4cnc5[nH]ncc5c4)cc3)cc2)CC1	4	1.3	
CN1CCN(c2ccc(S(=O)(=O)c3ccc(CNC(=O)c4cc5ccncc5s4)cc3)cc2)CC1	1	0.3	
CN1CCN(c2ccc(S(=O)(=O)c3ccc(CNC(=O)c4ccc5nccn5c4)cc3)cc2)CC1	1	0.2	
CCOCc1ccc(S(=O)(=O)c2ccc(CNC(=O)c3cc4ccncc4o3)cc2)cc1	4.9	6.6	
CCOCc1ccc(S(=O)(=O)c2ccc(CNC(=O)c3cnc4nccn4c3)cc2)cc1	2.7	5.2	
CCOCc1ccc(S(=O)(=O)c2ccc(CNC(=O)c3cc4cnccc4[nH]3)cc2)cc1	22.5	6.8	
CCNC(=O)c1ccc(S(=O)(=O)c2ccc(CNC(=O)c3cc4ccncc4o3)cc2)cc1	4.5	6.7	
CCNC(=O)c1ccc(S(=O)(=O)c2ccc(CNC(=O)c3cc4cnccc4[nH]3)cc2)cc1	14.5	14.1	

SMILES	IC50 [1] [nM]	IC50 ([2]; Homo sapiens, A2780, 72 h) [nM]	IC50 [2] [nM]
CCNC(=O)c1ccc(S(=O)(=O)c2ccc(CNC(=O)c3ccc4nccn4c3)cc2)cc1	12	6.3	
CCNC(=O)c1ccc(S(=O)(=O)c2ccc(CNC(=O)c3cnc4nccn4c3)cc2)cc1	22.6	87.8	
CCNC(=O)c1ccc(S(=O)(=O)c2ccc(CNC(=O)c3cc4ccncc4s3)cc2)cc1	1.5	3.3	
O=C(NCc1ccc(S(=O)(=O)c2ccc(CO)cc2)cc1)c1ccc2nccn2c1	14.2	12.9	
O=C(NCc1ccc(S(=O)(=O)c2ccc(CO)cc2)cc1)c1cc2ccncc2o1	4.9	6.2	
O=C(NCc1ccc(S(=O)(=O)c2ccc(N3CCOCC3)cc2)cc1)c1cnc2nccn2c1	1.7	4	
O=C(NCc1ccc(S(=O)(=O)c2ccc(N3CCOCC3)cc2)cc1)c1cc2ccncc2o1	4.6	2.5	
O=C(NCc1ccc(S(=O)(=O)c2ccc(N3CCOCC3)cc2)cc1)c1cc2ccncc2s1	1.6	1.5	
O=C(NCc1ccc(S(=O)(=O)c2ccc(N3CCOCC3)cc2)cc1)c1ccc2nccn2c1	3.5	0.9	
CC(C)c1ccc(S(=O)(=O)c2ccc(CNC(=O)c3cnc4nccn4c3)cc2)cc1	1.7	8.1	
CC(C)c1ccc(S(=O)(=O)c2ccc(CNC(=O)c3cc4ccncc4o3)cc2)cc1	11.9	8	
CC(C)Oc1ccc(S(=O)(=O)c2ccc(CNC(=O)c3cc4ccncc4o3)cc2)cc1	6.8	5.7	
O=C(NCc1ccc(S(=O)(=O)c2ccc(N3CCCC3)cc2)cc1)c1ccc2cn[nH]c2n1	6	4.5	
O=C(NCc1ccc(S(=O)(=O)c2ccc(N3CCCC3)cc2)cc1)c1ccc2nccn2c1	3	1.4	
O=C(NCc1ccc(S(=O)(=O)c2ccc(OC(F)(F)F)cc2)cc1)c1cc2ccncc2o1	9.4		27.7
O=C(NCc1ccc(S(=O)(=O)c2ccc(OC(F)(F)F)cc2)cc1)c1cnc2nccn2c1	5	17.6	
O=C(NCc1ccc(S(=O)(=O)c2ccc(OC(F)(F)F)cc2)cc1)c1cnc2[nH]ncc2c1	34.6	22.3	
